Laboratory results as given in BindingDB's records for doi:10.1016/j.bmcl.2006.07.074 (Boehringer Ingelheim Pharmaceuticals, 2006).

Biological target: DNA-directed RNA polymerase II (Bos taurus)
Experiment: Inhibition of calf thymus DNA dependent RNA polymerase 2

O=C(O)c1ccc2c(C3CCCCC3)c(-c3ccoc3)[nH]c2c1 [3-cyclohexyl-2-(furan-3-yl)-1H-indole-6-carboxylic acid]
IC50: > 125 µM
